These results are taken from ChEMBL document CHEMBL1144272, “Generation of a new class of hNK(2) receptor ligands using the 'fragment approach'” (Bioorg Med Chem Lett, 2005).

Broadly, the Ki is a dissociation constant, usually derived from enzyme kinetics or from competition with a known ligand. Read a low Ki as higher affinity.

Each structure is given as a SMILES string.

For this test, the target named is T1, Substance-K receptor (Homo sapiens, UniProt P21452).
T1 sequence (P21452 whole entry): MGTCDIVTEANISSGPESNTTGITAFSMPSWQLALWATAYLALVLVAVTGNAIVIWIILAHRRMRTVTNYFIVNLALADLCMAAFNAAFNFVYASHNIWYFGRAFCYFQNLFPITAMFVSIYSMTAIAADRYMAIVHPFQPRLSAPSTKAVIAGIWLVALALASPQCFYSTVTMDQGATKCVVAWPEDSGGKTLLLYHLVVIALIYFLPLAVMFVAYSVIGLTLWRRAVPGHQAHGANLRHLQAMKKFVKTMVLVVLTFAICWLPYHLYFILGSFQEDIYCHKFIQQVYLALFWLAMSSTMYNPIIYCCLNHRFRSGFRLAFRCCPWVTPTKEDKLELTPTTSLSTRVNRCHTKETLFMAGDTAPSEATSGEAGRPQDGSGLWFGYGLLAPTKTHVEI
Briefly: Binding affinity for human tachykinin receptor 2 was measured by using [125I]NKA as radio ligand.
With `O=C(NCCCN1CCOCC1)[C@@H](Cc1ccccc1)NC(=O)N1CCN(c2ccccc2)CC1`, the Ki is > 3000 nM.
The value for `O=C(Nc1ccccc1)N[C@H](Cc1ccccc1)C(=O)NCCCN1CCOCC1` was > 10000 nM; that for `O=C(NCCCN1CCOCC1)[C@H](Cc1ccccc1)NC(=O)N1CCN(c2ccccc2)CC1` was > 3000 nM.
In the case of `O=C(NCCCN1CCOCC1)[C@H](Cc1ccccc1)NC(=O)N1CCC(Cc2ccccc2)CC1` it was 1600 nM; in that of `O=C(NCCCN1CCOCC1)[C@@H](Cc1ccccc1)NC(=O)N1CCC(Cc2ccccc2)CC1`, 2000 nM; in that of `O=C(NCCCN1CCOCC1)[C@@H](Cc1ccccc1)NC(=O)N(c1ccccc1)c1ccccc1`, > 3000 nM.
Consider `O=C(NCCCN1CCOCC1)[C@H](Cc1ccccc1)NC(=O)N(c1ccccc1)c1ccccc1`, for which the inhibitory constant (Ki) is > 3000 nM.
In the case of `O=C(Nc1ccccc1)N[C@@H](Cc1ccccc1)C(=O)NCCCN1CCOCC1` it was > 10000 nM; in that of `O=C(Nc1ccc(OCc2ccccc2)cc1)N[C@@H](Cc1ccccc1)C(=O)NCCCN1CCOCC1` (stereo in doubt; 31a (L)), > 1000 nM; in that of `O=C(Nc1ccc(OCc2ccccc2)cc1)N[C@H](Cc1ccccc1)C(=O)NCCCN1CCOCC1` (stereo in doubt; 31b (D)), 100 nM.
The value for `O=C(Nc1ccc(OCc2ccccc2)cc1)N[C@@H](Cc1ccccc1)C(=O)NCCCN1CCOCC1` (stereo in doubt; 32a (L)) was 1200 nM.
In the case of `O=C(Nc1ccc(OCc2ccccc2)cc1)N[C@H](Cc1ccccc1)C(=O)NCCCN1CCOCC1` (stereo in doubt; 32b (D)) it was 630 nM.
